From PMC8657982, “Overlap and Specificity in the Substrate Spectra of Human Monoamine Transporters and Organic Cation Transporters 1, 2, and 3” (International Journal of Molecular Sciences, 2021)

Key:
SERT = SERT (Homo sapiens, UniProt P31645); assay: Uptake into HEK293 cells overexpressing SERT (uptake ratio and concentration-dependent uptake); details: for Clint ± SEM: SERT, intrinsic clearance, quotient of vmax and Km;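 for Uptake Ratio by Transporter SERT: ratio of uptake in SERT cells over empty-vector control cells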;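 for all read-outs here: incubation at 37 °C, intracellular compound quantified by HPLC-MS/MS after cell lysis, uptake normalized to total protein measured by bicinchoninic acid assay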
Sequence of SERT (P31645 whole entry): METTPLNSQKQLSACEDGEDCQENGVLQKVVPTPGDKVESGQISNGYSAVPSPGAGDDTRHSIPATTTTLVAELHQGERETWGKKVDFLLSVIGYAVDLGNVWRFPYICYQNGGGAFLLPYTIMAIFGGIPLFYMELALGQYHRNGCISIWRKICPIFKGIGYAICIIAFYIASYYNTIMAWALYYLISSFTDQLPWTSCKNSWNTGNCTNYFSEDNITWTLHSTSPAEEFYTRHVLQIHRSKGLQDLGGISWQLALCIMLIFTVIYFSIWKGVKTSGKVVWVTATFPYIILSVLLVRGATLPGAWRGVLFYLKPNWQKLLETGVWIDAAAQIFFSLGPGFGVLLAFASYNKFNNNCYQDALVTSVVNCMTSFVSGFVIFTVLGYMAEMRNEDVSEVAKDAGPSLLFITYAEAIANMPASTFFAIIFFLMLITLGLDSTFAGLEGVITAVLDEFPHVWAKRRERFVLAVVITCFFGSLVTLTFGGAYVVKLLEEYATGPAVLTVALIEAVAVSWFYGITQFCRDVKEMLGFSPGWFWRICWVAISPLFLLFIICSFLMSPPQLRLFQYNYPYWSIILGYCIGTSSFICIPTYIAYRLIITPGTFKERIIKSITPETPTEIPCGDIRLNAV

NET = NET (Homo sapiens, UniProt P23975); assay: Uptake into HEK293 cells overexpressing NET (uptake ratio and concentration-dependent uptake); details: intrinsic clearance, quotient of vmax and Km
Sequence of NET (P23975 whole entry): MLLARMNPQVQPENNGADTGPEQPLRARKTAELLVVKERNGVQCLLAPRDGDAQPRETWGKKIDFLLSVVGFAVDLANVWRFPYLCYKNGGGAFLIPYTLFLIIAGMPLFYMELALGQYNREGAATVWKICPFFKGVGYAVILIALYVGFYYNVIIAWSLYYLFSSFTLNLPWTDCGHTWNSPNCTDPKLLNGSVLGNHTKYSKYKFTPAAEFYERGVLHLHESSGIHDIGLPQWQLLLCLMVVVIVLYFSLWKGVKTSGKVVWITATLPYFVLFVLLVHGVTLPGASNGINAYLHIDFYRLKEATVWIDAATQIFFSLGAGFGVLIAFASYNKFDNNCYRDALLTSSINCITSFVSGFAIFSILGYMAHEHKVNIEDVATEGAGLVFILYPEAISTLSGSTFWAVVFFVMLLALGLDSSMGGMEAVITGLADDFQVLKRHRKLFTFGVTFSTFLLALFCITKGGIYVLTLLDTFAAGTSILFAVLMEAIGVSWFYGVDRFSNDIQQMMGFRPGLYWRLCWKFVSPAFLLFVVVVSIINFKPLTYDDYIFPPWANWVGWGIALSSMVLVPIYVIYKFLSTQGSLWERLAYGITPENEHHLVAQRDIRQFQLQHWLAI

DAT = DAT (Homo sapiens, UniProt Q01959); assay: Uptake into HEK293 cells overexpressing DAT (uptake ratio and concentration-dependent uptake); details: intrinsic clearance, quotient of vmax and Km
Sequence of DAT (Q01959 whole entry): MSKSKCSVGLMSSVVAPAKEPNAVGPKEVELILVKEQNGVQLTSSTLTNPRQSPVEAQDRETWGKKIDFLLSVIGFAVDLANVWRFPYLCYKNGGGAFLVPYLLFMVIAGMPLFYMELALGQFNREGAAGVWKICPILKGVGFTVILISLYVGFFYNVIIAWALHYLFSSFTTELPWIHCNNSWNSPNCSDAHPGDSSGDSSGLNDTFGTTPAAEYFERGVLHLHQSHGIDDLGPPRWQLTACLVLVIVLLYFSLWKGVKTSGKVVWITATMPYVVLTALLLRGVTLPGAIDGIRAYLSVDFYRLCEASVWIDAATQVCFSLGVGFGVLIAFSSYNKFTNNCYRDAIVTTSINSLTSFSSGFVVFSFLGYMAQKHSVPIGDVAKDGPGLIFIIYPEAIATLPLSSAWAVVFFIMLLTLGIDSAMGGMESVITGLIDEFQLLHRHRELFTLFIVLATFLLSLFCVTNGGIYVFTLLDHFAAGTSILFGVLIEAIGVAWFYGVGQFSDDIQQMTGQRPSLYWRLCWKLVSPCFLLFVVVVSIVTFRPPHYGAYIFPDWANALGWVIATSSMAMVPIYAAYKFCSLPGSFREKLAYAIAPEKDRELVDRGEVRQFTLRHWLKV

OCT1 = molecular target: T1, OCT1 (Homo sapiens, UniProt O15245); assay: Uptake into HEK293 cells overexpressing OCT1 (uptake ratio and concentration-dependent uptake); details: intrinsic clearance, quotient of vmax and Km
T1 sequence (O15245 1-554): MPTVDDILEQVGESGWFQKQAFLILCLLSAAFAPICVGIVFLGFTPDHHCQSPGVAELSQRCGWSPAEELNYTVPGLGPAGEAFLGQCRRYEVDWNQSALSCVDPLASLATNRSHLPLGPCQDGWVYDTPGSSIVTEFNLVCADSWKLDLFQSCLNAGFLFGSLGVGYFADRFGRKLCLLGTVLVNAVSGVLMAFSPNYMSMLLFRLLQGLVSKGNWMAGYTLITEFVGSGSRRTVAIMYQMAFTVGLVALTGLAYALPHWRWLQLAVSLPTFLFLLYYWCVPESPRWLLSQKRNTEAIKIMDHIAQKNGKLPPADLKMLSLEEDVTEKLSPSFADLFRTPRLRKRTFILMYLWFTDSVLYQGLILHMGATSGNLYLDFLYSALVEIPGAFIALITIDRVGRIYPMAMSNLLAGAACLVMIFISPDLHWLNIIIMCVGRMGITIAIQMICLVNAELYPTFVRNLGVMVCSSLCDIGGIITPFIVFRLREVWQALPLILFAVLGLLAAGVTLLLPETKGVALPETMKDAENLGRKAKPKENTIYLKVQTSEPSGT

OCT2 = molecular target: T2, OCT2 (Homo sapiens, UniProt O15244); assay: Uptake into HEK293 cells overexpressing OCT2 (uptake ratio and concentration-dependent uptake)
T2 sequence (O15244 1-555): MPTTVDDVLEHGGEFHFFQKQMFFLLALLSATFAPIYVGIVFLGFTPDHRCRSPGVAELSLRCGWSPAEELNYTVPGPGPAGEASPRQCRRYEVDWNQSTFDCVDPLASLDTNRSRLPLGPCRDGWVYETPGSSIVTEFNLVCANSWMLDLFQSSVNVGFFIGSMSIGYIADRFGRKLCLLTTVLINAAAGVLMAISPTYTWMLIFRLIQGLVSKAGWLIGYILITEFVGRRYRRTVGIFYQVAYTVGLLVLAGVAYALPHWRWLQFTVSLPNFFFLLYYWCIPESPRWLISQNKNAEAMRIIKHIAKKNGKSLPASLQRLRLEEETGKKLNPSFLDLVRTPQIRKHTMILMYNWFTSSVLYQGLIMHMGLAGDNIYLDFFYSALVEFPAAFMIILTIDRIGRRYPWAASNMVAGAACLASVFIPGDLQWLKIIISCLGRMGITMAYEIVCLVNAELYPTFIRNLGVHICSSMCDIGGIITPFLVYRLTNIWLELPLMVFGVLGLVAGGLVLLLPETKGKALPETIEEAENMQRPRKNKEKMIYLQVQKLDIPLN

OCT3 = molecular target: T3, OCT3 (Homo sapiens, UniProt O75751); assay: Uptake into HEK293 cells overexpressing OCT3 (uptake ratio and concentration-dependent uptake); details: intrinsic clearance, quotient of vmax and Km
T3 sequence (O75751 1-556): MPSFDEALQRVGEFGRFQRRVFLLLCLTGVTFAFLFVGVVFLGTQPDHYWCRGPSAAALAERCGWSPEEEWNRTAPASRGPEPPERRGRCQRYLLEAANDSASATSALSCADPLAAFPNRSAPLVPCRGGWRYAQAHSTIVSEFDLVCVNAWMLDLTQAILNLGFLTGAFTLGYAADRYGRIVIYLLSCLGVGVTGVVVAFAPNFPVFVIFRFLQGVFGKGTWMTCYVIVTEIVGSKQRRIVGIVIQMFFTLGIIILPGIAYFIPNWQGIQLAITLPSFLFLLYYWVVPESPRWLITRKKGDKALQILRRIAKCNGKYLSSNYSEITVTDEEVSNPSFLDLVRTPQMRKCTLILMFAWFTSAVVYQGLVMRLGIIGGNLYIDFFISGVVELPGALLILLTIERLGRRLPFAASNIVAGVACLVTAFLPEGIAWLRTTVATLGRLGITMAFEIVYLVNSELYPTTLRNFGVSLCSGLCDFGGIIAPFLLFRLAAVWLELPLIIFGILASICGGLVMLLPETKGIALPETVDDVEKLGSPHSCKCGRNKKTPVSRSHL

[1] = substrate: CNCCc1c[nH]c2ccc(O)cc12; assay: cells, lysate or membranes; details: concentration-dependent net uptake, Michaelis–Menten, pH 7.4
[2] = substrate: N=C(N)NCc1cccc(I)c1; assay: cells, lysate or membranes; details: concentration-dependent net uptake, Michaelis–Menten, pH 7.4
[3] = substrate: NCCc1c[nH]c2ccc(O)cc12; assay: cells, lysate or membranes; details: concentration-dependent net uptake, Michaelis–Menten, pH 7.4

COc1cc(CCN)ccc1O [3-Methoxy-p-tyramine]
Uptake Ratio by Transporter SERT (SERT): 4.45

NCc1ccc(O)cc1 [4-Hydroxybenzylamine]
Uptake Ratio by Transporter SERT (SERT): 1.55

COc1ccc(CCN)cc1O [4-Methoxy-m-tyramine]
Uptake Ratio by Transporter SERT (SERT): 3.86

COc1ccc2[nH]cc(CCN)c2c1 [5-Methoxy-Tryptamine]
Uptake Ratio by Transporter SERT (SERT): 3.46

NC[C@H](O)c1ccc(O)c(O)c1 [(-)-Norepinephrine]
Clint ± SEM (NET): 47.8 mL × g Protein^−1 × min^−1

CN[C@@H]1CCc2[nH]c3ccc(C(N)=O)cc3c2C1 [(R)-Frovatriptan, reference compound]
Clint ± SEM (SERT): 38.48 mL × g Protein^−1 × min^−1

NCC(O)c1ccccc1 (stereo not drawn) [Bisnorephedrine]
Uptake Ratio by Transporter SERT (SERT): 1.45

CNCCc1ccc(O)c(O)c1 [Deoxyepinephrine]
Uptake Ratio by Transporter SERT (SERT): 13.89

NCCc1ccc(O)c(O)c1 [Dopamine]
Clint ± SEM (DAT): 78.9 mL × g Protein^−1 × min^−1

CNCC(O)c1ccccc1 (stereo not drawn) [Halostachine]
Uptake Ratio by Transporter SERT (SERT): 2.26

CN(C)CCc1ccc(O)cc1 [Hordenine]
Uptake Ratio by Transporter SERT (SERT): 2.02

C[n+]1ccc(-c2ccccc2)cc1 [MPP+, reference compound]
Uptake Ratio by Transporter SERT (SERT): 50.42

CNCC(O)c1ccc(O)c(OC)c1 (stereo not drawn) [Metanephrine]
Uptake Ratio by Transporter SERT (SERT): 1.97

CNCCc1ccc(O)cc1 [N-Methyl p-tyramine]
Uptake Ratio by Transporter SERT (SERT): 2.46

CNCCc1c[nH]c2ccc(O)cc12 [N-Methyl serotonin]
Clint ± SEM (OCT1): 80.52 mL × g Protein^−1 × min^−1 | Vmax ± SEM (OCT2; concentration-dependent net uptake, Michaelis–Menten): 11,918 pmol × mg Protein^−1 × min^−1 | Clint ± SEM (OCT2; intrinsic clearance, quotient of vmax and Km): 46.93 mL × g Protein^−1 × min^−1 | Clint ± SEM (OCT3): 9.68 mL × g Protein^−1 × min^−1 | Clint ± SEM (SERT): 337.7 mL × g Protein^−1 × min^−1

CNCCc1ccccc1 [N-Methylphenylethylamine]
Uptake Ratio by Transporter SERT (SERT): 2.29

COc1cc(C(O)CN)ccc1O (stereo not drawn) [Normetanephrine]
Uptake Ratio by Transporter SERT (SERT): 1.91

CNCC(O)c1ccc(O)cc1 (stereo not drawn) [Synephrine]
Uptake Ratio by Transporter SERT (SERT): 1.53

NC1CC1c1ccccc1 (stereo not drawn) [Tranylcypromin, reference compound]
Uptake Ratio by Transporter SERT (SERT): 2.37

NCCc1c[nH]c2ccccc12 [Tryptamine]
Uptake Ratio by Transporter SERT (SERT): 4.88 | Clint ± SEM (SERT): 22.0 mL × g Protein^−1 × min^−1

NCCc1cccc(O)c1 [m-Tyramine]
Uptake Ratio by Transporter SERT (SERT): 3.08

B1: OCT3 (Homo sapiens) (protein)
chain: MPSFDEALQRVGEFGRFQRRVFLLLCLTGVTFAFLFVGVVFLGTQPDHYWCRGPSAAALAERCGWSPEEEWNRTAPASRGPEPPERRGRCQRYLLEAANDSASATSALSCADPLAAFPNRSAPLVPCRGGWRYAQAHSTIVSEFDLVCVNAWMLDLTQAILNLGFLTGAFTLGYAADRYGRIVIYLLSCLGVGVTGVVVAFAPNFPVFVIFRFLQGVFGKGTWMTCYVIVTEIVGSKQRRIVGIVIQMFFTLGIIILPGIAYFIPNWQGIQLAITLPSFLFLLYYWVVPESPRWLITRKKGDKALQILRRIAKCNGKYLSSNYSEITVTDEEVSNPSFLDLVRTPQMRKCTLILMFAWFTSAVVYQGLVMRLGIIGGNLYIDFFISGVVELPGALLILLTIERLGRRLPFAASNIVAGVACLVTAFLPEGIAWLRTTVATLGRLGITMAFEIVYLVNSELYPTTLRNFGVSLCSGLCDFGGIIAPFLLFRLAAVWLELPLIIFGILASICGGLVMLLPETKGIALPETVDDVEKLGSPHSCKCGRNKKTPVSRSHL
Km ([1]; other: OCT3): 18.78 ± 12.42 µM | Vmax ([1]; other: OCT3): 181.7 pmol × mg Protein^−1 × min^−1 | Km ([2]; other: OCT3): 10.5 ± 1.9 µM | Vmax ([2]; other: OCT3): 0.00169 µmol/min/mg | Vmax/Km ([2]; other: OCT3): 161 µL/min/mg

B2: OCT2 (Homo sapiens) (protein)
chain: MPTTVDDVLEHGGEFHFFQKQMFFLLALLSATFAPIYVGIVFLGFTPDHRCRSPGVAELSLRCGWSPAEELNYTVPGPGPAGEASPRQCRRYEVDWNQSTFDCVDPLASLDTNRSRLPLGPCRDGWVYETPGSSIVTEFNLVCANSWMLDLFQSSVNVGFFIGSMSIGYIADRFGRKLCLLTTVLINAAAGVLMAISPTYTWMLIFRLIQGLVSKAGWLIGYILITEFVGRRYRRTVGIFYQVAYTVGLLVLAGVAYALPHWRWLQFTVSLPNFFFLLYYWCIPESPRWLISQNKNAEAMRIIKHIAKKNGKSLPASLQRLRLEEETGKKLNPSFLDLVRTPQIRKHTMILMYNWFTSSVLYQGLIMHMGLAGDNIYLDFFYSALVEFPAAFMIILTIDRIGRRYPWAASNMVAGAACLASVFIPGDLQWLKIIISCLGRMGITMAYEIVCLVNAELYPTFIRNLGVHICSSMCDIGGIITPFLVYRLTNIWLELPLMVFGVLGLVAGGLVLLLPETKGKALPETIEEAENMQRPRKNKEKMIYLQVQKLDIPLN
Km ([1]; other: OCT2): 253.9 ± 54.98 µM | Vmax ([1]; other: OCT2): 11918 pmol × mg Protein^−1 × min^−1 | Km ([2]; other: OCT2): 13.3 ± 2.4 µM | Vmax ([2]; other: OCT2): 0.00204 µmol/min/mg | Vmax/Km ([2]; other: OCT2): 152 µL/min/mg | Km ([3]; other: OCT2): 685.6 µM | Vmax ([3]; other: OCT2): 31565 pmol × mg Protein^−1 × min^−1

B3: OCT1 (Homo sapiens) (protein)
chain: MPTVDDILEQVGESGWFQKQAFLILCLLSAAFAPICVGIVFLGFTPDHHCQSPGVAELSQRCGWSPAEELNYTVPGLGPAGEAFLGQCRRYEVDWNQSALSCVDPLASLATNRSHLPLGPCQDGWVYDTPGSSIVTEFNLVCADSWKLDLFQSCLNAGFLFGSLGVGYFADRFGRKLCLLGTVLVNAVSGVLMAFSPNYMSMLLFRLLQGLVSKGNWMAGYTLITEFVGSGSRRTVAIMYQMAFTVGLVALTGLAYALPHWRWLQLAVSLPTFLFLLYYWCVPESPRWLLSQKRNTEAIKIMDHIAQKNGKLPPADLKMLSLEEDVTEKLSPSFADLFRTPRLRKRTFILMYLWFTDSVLYQGLILHMGATSGNLYLDFLYSALVEIPGAFIALITIDRVGRIYPMAMSNLLAGAACLVMIFISPDLHWLNIIIMCVGRMGITIAIQMICLVNAELYPTFVRNLGVMVCSSLCDIGGIITPFIVFRLREVWQALPLILFAVLGLLAAGVTLLLPETKGVALPETMKDAENLGRKAKPKENTIYLKVQTSEPSGT
Km ([1]; other: OCT1): 27.78 ± 9.19 µM | Vmax ([1]; other: OCT1): 2237 pmol × mg Protein^−1 × min^−1 | Km ([2]; other: OCT1): 16.6 ± 3.7 µM | Vmax ([2]; other: OCT1): 0.0023 µmol/min/mg | Vmax/Km ([2]; other: OCT1): 138 µL/min/mg | Km ([3]; other: OCT1): 235.6 µM | Vmax ([3]; other: OCT1): 5161 pmol × mg Protein^−1 × min^−1
